Measured values reported in article PMC10671074, “Tumor Regression upon Intratumoral and Subcutaneous Dosing of the STING Agonist ALG-031048 in Mouse Efficacy Models” (International Journal of Molecular Sciences, 2023).
pKd: −log10 of the molar value. Where “and” joins values, the source holds several entries; their conditions need not be identical. Equal values may be shown once.

How the values were obtained:
plasma cytokines = assay: Plasma cytokine levels in Hepa1–6 tumor-bearing mice; format: in vivo, mouse; details: Hepa1–6, 6 hours after the first dose
Protocol: Figure S6. A: Tumor regression in Hepa1‐6 tumor‐bearing […] mice upon IT treatment with three doses of 25 μg (light blue) or 100 μ g ALG‐031048 (dark blue), in comparison to treatment with 10 mg/kg anti‐PD‐1 antibody twice per week, 6 doses total (red). Vehicle‐treated animals are shown in black; shown are the mean tumor volumes ± standard deviation for each group of 10 animals.
Irregular, crater‐shaped tumors prevented accurate tumor volume measurement between Days 8‐
25. Treatment started when tumors reached an average volume of 98 mm3. Statistical analysis pro‐ vided in Table S4. B: Tumor weight for each group at the end of the study. Statistical analysis pro‐ vided in Table S5. C: Plasma cytokine levels 6 hours after the first dose. Each symbol represents one animal as well as the mean of the group (n=10). Unpaired t‐test was used to compare different groups: all groups for al l cytokines were statistically significant from each other with P‐values of < 0.0001 with the following exceptions: vehicle vs anti‐PD‐1 were non‐significant (all cytokines); the […]

ENPP1 = target: T1, ENPP1 (Homo sapiens, UniProt P22413); assay: ENPP1 stability assay; format: in vitro ADME; details: pH 9.5; 100 μM STING agonist, 26.5 nM recombinant human ENPP1, 37 °C, up to 2 h; read-out: ENPP1 t½
T1 construct: purchased R&D Systems
T1 sequence (P22413 1-925): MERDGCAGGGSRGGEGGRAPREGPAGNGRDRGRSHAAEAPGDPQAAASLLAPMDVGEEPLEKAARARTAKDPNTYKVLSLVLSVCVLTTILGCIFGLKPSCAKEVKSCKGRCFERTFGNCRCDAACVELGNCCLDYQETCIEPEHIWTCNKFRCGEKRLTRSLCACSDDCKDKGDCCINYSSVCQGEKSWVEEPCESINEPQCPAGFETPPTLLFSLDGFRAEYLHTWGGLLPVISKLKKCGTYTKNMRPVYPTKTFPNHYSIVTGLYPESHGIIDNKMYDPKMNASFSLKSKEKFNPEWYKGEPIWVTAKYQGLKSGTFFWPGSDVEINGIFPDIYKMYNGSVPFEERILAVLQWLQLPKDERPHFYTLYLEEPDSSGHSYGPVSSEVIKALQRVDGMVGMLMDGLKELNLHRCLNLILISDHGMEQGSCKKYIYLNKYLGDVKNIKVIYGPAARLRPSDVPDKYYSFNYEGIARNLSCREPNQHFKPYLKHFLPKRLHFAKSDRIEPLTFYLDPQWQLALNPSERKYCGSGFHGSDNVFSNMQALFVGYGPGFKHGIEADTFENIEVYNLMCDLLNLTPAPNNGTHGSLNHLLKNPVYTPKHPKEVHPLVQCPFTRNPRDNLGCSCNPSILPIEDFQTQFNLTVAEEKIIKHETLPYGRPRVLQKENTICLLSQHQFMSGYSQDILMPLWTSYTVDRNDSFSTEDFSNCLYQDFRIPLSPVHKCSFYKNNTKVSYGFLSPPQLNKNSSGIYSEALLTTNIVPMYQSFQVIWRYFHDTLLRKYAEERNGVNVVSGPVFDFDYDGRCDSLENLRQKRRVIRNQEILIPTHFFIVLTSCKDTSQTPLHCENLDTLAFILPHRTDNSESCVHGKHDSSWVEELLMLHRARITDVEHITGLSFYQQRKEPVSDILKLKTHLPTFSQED

Plasma stability, human = format: in vitro ADME; details: 37 °C, read-out: Plasma t½, Human
Protocol: The plasma stability assay was carried out on 96-well microtiter plates. The test compounds at 5 µM and the reference compound (propantheline) at 1 µM final concentration were incubated separately at 37 °C with mouse or human plasma for 0, 30, 60, and 240 min. At the end of each incubation time point, 300 μL of the quenching solution (50% acetonitrile, 50% methanol, and 0.05% formic acid) containing the internal standard was added to each well. The incubation plates were sealed, vortexed, and centrifuged at 4 °C for 15 min at 4000 rpm. The supernatant was transferred to fresh plates for LC/MS/MS analysis of the test compounds. The peak area ratios of each test compound over the internal standard were plotted against incubation time, and the t½ was calculated from the curve assuming first-order kinetics.

STING R232 = STING R232 (Homo sapiens, UniProt Q86WV6, H232R); assay: Thermal shift binding assay (differential scanning fluorimetry)
Protocol: Each sample was prepared in a total volume of 40 μL that contained a 5× final concentration of SYPRO orange (Invitrogen, Carlsbad, CA, USA) in buffer (20 mM of HEPES pH 7.5, 150 mM of NaCl, 1 mM of DTT, and 1 mM of MgCl2) and 4 μM of STING C-terminal domain protein with and without a test article. […] The resulting fluorescence intensity from the raw dissociation curve data were used to determine the melting temperature for STING protein alone or with a compound. Melting temperature from protein alone was then subtracted from all melting temperatures of protein in the presence of compound, and a resulting melting temperature vs. compound concentration provided apparent Kd values as generated using a sigmoidal dose–response (variable slope) equation in GraphPadPrism version 8.0 (GraphPad Software, Boston, MA, USA).

[1] = system: phosphodiesterase I from Crotalus adamanteus venom (SVPD)

Chain of STING R232 (Q86WV6 139-379 H232R): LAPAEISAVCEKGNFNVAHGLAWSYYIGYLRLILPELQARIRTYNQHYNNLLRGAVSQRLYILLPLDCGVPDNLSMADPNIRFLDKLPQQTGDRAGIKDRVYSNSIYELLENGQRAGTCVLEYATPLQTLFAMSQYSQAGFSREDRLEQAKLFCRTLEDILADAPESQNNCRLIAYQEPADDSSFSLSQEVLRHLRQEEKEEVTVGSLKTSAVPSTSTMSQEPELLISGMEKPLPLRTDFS

SMILES: CO[C@H]1[C@H]2OP(=O)(O)OC[C@@]34C[C@@H]3[C@@H](n3cnc5c(N)ncnc53)[C@H](O)[C@@H]4O[P@](=O)(S)OC[C@H]1O[C@H]2n1cnc2c(=O)[nH]c(N)nc21 [ALG-031048]
- Plasma cytokines after IT administration (plasma cytokines): increased plasma cytokines IFN-β1, IFN-γ, IL-6, MCP-1, MIP-1α, and TNF-α
- half-life at 100 μM (ENPP1): > 2 h
- half-life at 5 µM (Plasma stability, human): > 1 h
- pKd (STING R232): 5.57
- Maximum temperature shift (STING R232; STING R232 thermal shift assay, mean±standard deviation): 13.8 °C and 13.8±2.98 °C
- Stability after incubation with SVPD (in words) [1]: stable
